One may read the Ki as a dissociation constant, usually derived from enzyme kinetics or from competition with a known ligand.

This note sets out measurements from publication PMC7756656, “Discovery of Homobivalent Bitopic Ligands of the Cannabinoid CB2 Receptor” (Chemistry (Weinheim an Der Bergstrasse, Germany), 2020).

Some results are limits rather than exact numbers.

Test [1] has as its target T1, CB2R (hCB2R) (Homo sapiens, UniProt P34972).
T1 construct: gene CNR2; expressed in HEK-293T cells
The test is described as follows: [3H]CP-55, […] competition binding, HEK-293T membranes. To be noted: read-out: CB2R Ki [μM]^[b].

Test [2] concerns the target T2, CB1R (hCB1R) (Homo sapiens, UniProt P21554).
T2 construct: gene CNR1; expressed in HEK-293T cells; membrane fractions
The description is as above. The note with it: read-out: CB1R Ki [μM]^[b].

Test [3] concerns the target T1, CB2R (hCB2R). Description: inhibition of forskolin-induced cAMP, HEK-293T cells. In kind it is cell-based. The note with it: read-out: Wild type / pEC50 (converted).
Test [4] concerns the target T2, CB1R (hCB1R). Description: biochemical. It counts as HEK-293T membranes. The arrangement: [3H]CP-55,940 competition radioligand binding, membrane filtration, scintillation counting. The source says:
(§1) In vitro binding affinities of the alleged bitopic ligands 18–29 (Table 1) and the corresponding monovalent counterparts 6–17 (Table S1) were obtained from [^3H]CP‐55,940 competition‐binding assays using membrane fractions of the human CB1R and CB2R, respectively, expressed in HEK‐293T cells. […] Addition of the second pharmacophore makes bivalent ligands capable of binding CB2R in a selective manner. Optimal spacer length for N1‐ and N2‐ethyl derivatives is from 10 (n=8) to 14 (n=12) […]. S23 Aldrich, Madrid, Spain). Membranes were resuspended in the corresponding buffer and were incubated (90 min at 30 °C) with the radioligand and each compound at a high concentration (40 μM) with the purpose of determining the % of radioligand displacement. […] Nonspecific binding was determined with 10 μM [compound left out] (Sigma-Aldrich, Madrid, Spain) and total radioligand binding by incubation with the membranes in the absence of any compound. Filtration was performed by a Harvester filtermate (PerkinElmer, Boston, MA, USA) with Filtermat A GF/C filters pretreated with polyethylenimine 0.05%. After filtering, the filter was washed nine times with binding buffer and dried, and a melt-on scintillation sheet (MeltilexTM A, PerkinElmer, Boston, MA, USA) was melted onto it. Then, radioactivity was quantified by a […] (Wallac MicroBeta Trilux, PerkinElmer, Boston, MA, USA). Competition binding data were analyzed by using GraphPad Prism, version 5.02 (GraphPad Software Inc., San Diego, CA, USA), and Ki values are expressed as the mean ± SEM of at least three experiments performed in triplicate for each. 2.2- cAMP determination assays. Determination of cAMP levels in HEK293 cells stably expressing the CB2R was performed using the Lance-Ultra cAMP kit (PerkinElmer) according to the manufacturer’s instructions. Briefly, HEK293 cells expressing the CB2R were dispensed in white 384-well microplates at a density of 5.000 cells per well. Finally, cells were incubated for 60 min at room temperature with HTRF assay reagents, and fluorescence at 665 nm was analyzed on a PHERAstar Flagship microplate reader equipped with an HTRF optical module (BMG Labtech). Data analysis was made based on the fluorescence ratio emitted by the labeled cAMP probe (665 nm) over the light emitted by the europium cryptate-labeled anti-cAMP antibody (620 nm). A standard curve was used to calculate cAMP concentration. Forskolin stimulated cAMP levels were normalized to 100%. Data was analyzed by using […]

Test [5] deals with T1, CB2R (hCB2R). Description: biochemical. It counts as HEK-293T membranes. The arrangement: [3H]CP-55,940 competition radioligand binding, membrane filtration, scintillation counting.
Excerpt: as §1

T1 sequence (P34972 whole entry): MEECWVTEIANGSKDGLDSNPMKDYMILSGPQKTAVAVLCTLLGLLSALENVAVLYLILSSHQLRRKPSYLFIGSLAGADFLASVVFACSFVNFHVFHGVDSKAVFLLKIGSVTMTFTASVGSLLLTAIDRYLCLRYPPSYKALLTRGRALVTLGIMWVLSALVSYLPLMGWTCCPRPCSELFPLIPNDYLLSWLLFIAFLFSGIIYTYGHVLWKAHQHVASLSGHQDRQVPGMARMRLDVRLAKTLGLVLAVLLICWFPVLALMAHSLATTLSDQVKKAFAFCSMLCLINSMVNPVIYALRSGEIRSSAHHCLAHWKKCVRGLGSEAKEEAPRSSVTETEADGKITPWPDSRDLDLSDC
T2 sequence (P21554 whole entry): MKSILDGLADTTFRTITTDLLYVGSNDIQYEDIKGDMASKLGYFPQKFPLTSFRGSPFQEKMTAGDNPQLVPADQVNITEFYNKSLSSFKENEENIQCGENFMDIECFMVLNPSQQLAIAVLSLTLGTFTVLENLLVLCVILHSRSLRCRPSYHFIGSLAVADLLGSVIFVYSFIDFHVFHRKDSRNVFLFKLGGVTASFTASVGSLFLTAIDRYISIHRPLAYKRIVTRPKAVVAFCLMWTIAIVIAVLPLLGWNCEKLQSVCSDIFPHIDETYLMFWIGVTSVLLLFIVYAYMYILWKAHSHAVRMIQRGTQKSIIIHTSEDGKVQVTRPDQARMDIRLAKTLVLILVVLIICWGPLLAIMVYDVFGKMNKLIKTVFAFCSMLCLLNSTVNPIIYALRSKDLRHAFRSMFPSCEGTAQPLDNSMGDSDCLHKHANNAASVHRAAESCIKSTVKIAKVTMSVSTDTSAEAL

On to `CCCCCCC(C)(C)c1cc(OCCCCCCCCOc2cc(C(C)(C)CCCCCC)cc3c2-c2c(cnn2CC)C(C)(C)O3)c2c(c1)OC(C)(C)c1cnn(CC)c1-2` [compound 20, bivalent chromenopyrazole 20 (R1 = N1-Et, n = 6)], for which the Ki was 2.2 ± 0.7 µM at CB2R (hCB2R) [1] and > 40 µM at CB1R (hCB1R) [2].
Turning to `CCCCCCC(C)(C)c1cc(OCCCCCCCCCCCCOc2cc(C(C)(C)CCCCCC)cc3c2-c2nn(CC)cc2C(C)(C)O3)c2c(c1)OC(C)(C)c1cn(CC)nc1-2` [compound 25, bivalent chromenopyrazole 25 (R1 = N2-Et, n = 10)], at CB2R (hCB2R) [3], the EC50 is 0.0631 µM. The results for the Ki on CB2R (hCB2R) [1] and at CB1R (hCB1R) [2] were 0.3 ± 0.1 µM and > 40 µM, respectively.
Regarding `CCCCCCOc1cc(C(C)(C)CCCCCC)cc2c1-c1c(cnn1CC)C(C)(C)O2` [compound 6, 7-(1,1-Dimethylheptyl)-1-ethyl-9-hexyloxy1,4-Dihydro-4,4-dimethylchromeno[4,3-c]pyrazole], the Ki at CB1R (hCB1R) [4] and on CB2R (hCB2R) [5] was > 40 µM throughout.
With `CCCCCCC(C)(C)c1cc(OCCCCCCCCCCOc2cc(C(C)(C)CCCCCC)cc3c2-c2nn(CC)cc2C(C)(C)O3)c2c(c1)OC(C)(C)c1cn(CC)nc1-2` [compound 23, bivalent chromenopyrazole 23 (R1 = N2-Et, n = 8)], the figures for the Ki at CB2R (hCB2R) [1] and at CB1R (hCB1R) [2] were 5.8 ± 1.5 µM and > 40 µM, respectively.
As for `CCCCCCCCCCOc1cc(C(C)(C)CCCCCC)cc2c1-c1nn(CC)cc1C(C)(C)O2` [compound 11, 9-Decyloxy-7-(1,1-dimethylheptyl)-2-ethyl-2,4-dihydro-4,4-dimethylchromeno[4,3-c]pyrazole], the Ki on CB1R (hCB1R) [4] and at CB2R (hCB2R) [5] was > 40 µM each time.
Turning to `CCCCCCCCOc1cc(C(C)(C)CCCCCC)cc2c1-c1c(cnn1CC)C(C)(C)O2` [compound 8, 7-(1,1-Dimethylheptyl)-1-ethyl-1,4-dihydro-4,4-dimethyl-9-octyloxychromeno[4,3-c]pyrazole], the Ki at CB1R (hCB1R) [4] and on CB2R (hCB2R) [5] was > 40 µM in each case.
On to `CCCCCCCCOc1cc(C(C)(C)CCCCCC)cc2c1-c1nn(CC)cc1C(C)(C)O2` [compound 9, 7-(1,1-Dimethylheptyl)-2-ethyl-2,4-dihydro-4,4-dimethyl-9-octyloxychromeno[4,3-c]pyrazole], for which the Ki at CB1R (hCB1R) [4] and at CB2R (hCB2R) [5] was > 40 µM throughout.
As to `CCCCCCCCCCCCCCCCOc1cc(C(C)(C)CCCCCC)cc2c1-c1c(cnn1CC)C(C)(C)O2` [compound 16, 7-(1,1-Dimethylheptyl)-1-ethyl-9-hexadecyloxy-1,4-dihydro-4,4-dimethylchromeno[4,3-c]pyrazole], the Ki at CB1R (hCB1R) [4] and at CB2R (hCB2R) [5] was > 40 µM in each case.
Take `CCCCCCCCCCCCCCOc1cc(C(C)(C)CCCCCC)cc2c1-c1c(cnn1CC)C(C)(C)O2` [compound 14, 7-(1,1-Dimethylheptyl)-1-ethyl-1,4-dihydro-4,4-dimethyl-9-tetradecyloxychromeno[4,3-c]pyrazole]: the inhibitory constant (Ki) on CB1R (hCB1R) [4] and on CB2R (hCB2R) [5] was > 40 µM each time.
`CCCCCCC(C)(C)c1cc(OCCCCCCOc2cc(C(C)(C)CCCCCC)cc3c2-c2c(cnn2CC)C(C)(C)O3)c2c(c1)OC(C)(C)c1cnn(CC)c1-2` [compound 18, bivalent chromenopyrazole 18 (R1 = N1-Et, n = 4)]: the results for the Ki on CB2R (hCB2R) [1] and at CB1R (hCB1R) [2] were 28.1 ± 1.6 µM and > 40 µM, respectively.
With `CCCCCCC(C)(C)c1cc(OCCCCCCOc2cc(C(C)(C)CCCCCC)cc3c2-c2nn(CC)cc2C(C)(C)O3)c2c(c1)OC(C)(C)c1cn(CC)nc1-2` [compound 19, bivalent chromenopyrazole 19 (R1 = N2-Et, n = 4)], the inhibition constant Ki is 12.4 ± 2 µM at CB2R (hCB2R) [1] and > 40 µM on CB1R (hCB1R) [2].
As to `CCCCCCC(C)(C)c1cc(OCCCCCCCCCCCCCCOc2cc(C(C)(C)CCCCCC)cc3c2-c2c(cnn2CC)C(C)(C)O3)c2c(c1)OC(C)(C)c1cnn(CC)c1-2` [compound 26], at CB2R (hCB2R) [3], the EC50 was 0.316 µM. Besides, the Ki at CB2R (hCB2R) [1] is 0.8 ± 0.1 µM; on CB1R (hCB1R) [2] it was > 40 µM.
On to `CCCCCCCCCCOc1cc(C(C)(C)CCCCCC)cc2c1-c1c(cnn1CC)C(C)(C)O2` [compound 10, 9-Decyloxy-7-(1,1-dimethylheptyl)-1-ethyl-1,4-dihydro-4,4-dimethylchromeno[4,3-c]pyrazole], for which the Ki on CB1R (hCB1R) [4] and at CB2R (hCB2R) [5] was > 40 µM in each case.
For the molecule `CCCCCCCCCCCCOc1cc(C(C)(C)CCCCCC)cc2c1-c1nn(CC)cc1C(C)(C)O2` [compound 13, 7-(1,1-Dimethylheptyl)-9-dodecyloxy-2-ethyl-2,4-dihydro-4,4-dimethylchromeno[4,3-c]pyrazole], the inhibitory constant (Ki) on CB1R (hCB1R) [4] and on CB2R (hCB2R) [5] was > 40 µM throughout.
With `CCCCCCOc1cc(C(C)(C)CCCCCC)cc2c1-c1nn(CC)cc1C(C)(C)O2` [compound 7, 7-(1,1-Dimethylheptyl)-2-ethyl-9-hexyloxy-2,4-dihydro-4,4-dimethylchromeno[4,3-c]pyrazole], the Ki at CB1R (hCB1R) [4] and on CB2R (hCB2R) [5] was > 40 µM each time.
As for `CCCCCCC(C)(C)c1cc(OCCCCCCCCCCCCCCCCOc2cc(C(C)(C)CCCCCC)cc3c2-c2nn(CC)cc2C(C)(C)O3)c2c(c1)OC(C)(C)c1cn(CC)nc1-2` [compound 29, bivalent chromenopyrazole 29 (R1 = N2-Et, n = 14)], the inhibition constant Ki was 2.12 ± 0.21 µM at CB2R (hCB2R) [1] and > 40 µM on CB1R (hCB1R) [2].
As for `CCCCCCCCCCCCOc1cc(C(C)(C)CCCCCC)cc2c1-c1c(cnn1CC)C(C)(C)O2` [compound 12, 7-(1,1-Dimethylheptyl)-9-dodecyloxy-1-ethyl-1,4-dihydro-4,4-dimethylchromeno[4,3-c]pyrazole], the Ki on CB1R (hCB1R) [4] and on CB2R (hCB2R) [5] was > 40 µM throughout.
As for `CCCCCCC(C)(C)c1cc(OCCCCCCCCCCCCOc2cc(C(C)(C)CCCCCC)cc3c2-c2c(cnn2CC)C(C)(C)O3)c2c(c1)OC(C)(C)c1cnn(CC)c1-2` [compound 24, bivalent chromenopyrazole 24 (R1 = N1-Et, n = 10)], the EC50 at CB2R (hCB2R) [3] was 0.0631 µM. For the same molecule, the inhibition constant (Ki) on CB2R (hCB2R) [1] was 0.4 ± 0.14 µM; on CB1R (hCB1R) [2] it was > 40 µM.
